Results from ChEMBL document CHEMBL1141771, “p-Aminoacetophenonic acids produced by a mangrove endophyte: Streptomyces griseus subsp” (J Nat Prod, 2005).
Active and inactive are the calls of the source.

Key:
[1] = Activity of peroxidase
[2] = Activity of hydroxysteroid dehydrogenase
[3] = tested on: L929; assay: Cytotoxicity against mouse L929 cells; format: functional, cell-based
[4] = tested on: HeLa; assay: Cytotoxicity against human HeLa cells; format: functional, cell-based
[5] = tested on: K562; assay: Cytotoxicity against human K562 cells; format: functional, cell-based

Measured: Activity

CC(/C=C/C(=O)c1ccc(N)cc1)CC(C)C(=O)O (stereo not given)
inactive: all assays above

CC(O)C(/C=C/C=C/C(=O)O)C(C)CC(C)C(O)CC(=O)c1ccc(N)cc1 (stereo not given)
inactive: all assays above

C/C(=C\C(C)CC(C)C(O)CC(=O)c1ccc(N)cc1)C(=O)O (stereo not given)
inactive: all assays above
